According to the NIST ThermoML archive (doi:10.1021/je200811n):

Conditions: Hot wire method

F/C=C/C(F)(F)F [trans-1,3,3,3-tetrafluoropropene]
Conditions | thermal conductivity [W/m/K]
281.63 K, 15232 kPa, Liquid | 0.08862
281.67 K, 23307 kPa, Liquid | 0.09249
281.68 K, 20203 kPa, Liquid | 0.09077
281.7 K, 445 kPa, Liquid | 0.08035
281.71 K, 5379 kPa, Liquid | 0.08327
281.72 K, 15226 kPa, Liquid | 0.08837
281.76 K, 10284 kPa, Liquid | 0.08598
281.8 K, 5372 kPa, Liquid | 0.08315
281.82 K, 242 kPa, Gas | 0.01258
281.84 K, 200 kPa, Gas | 0.01237
281.86 K, 99 kPa, Gas | 0.01213
281.86 K, 141 kPa, Gas | 0.01223
282.04 K, 23299 kPa, Liquid | 0.09237
282.06 K, 242 kPa, Gas | 0.01258
282.06 K, 20222 kPa, Liquid | 0.09082
282.07 K, 438 kPa, Liquid | 0.07934
282.1 K, 200 kPa, Gas | 0.01234
282.13 K, 98 kPa, Gas | 0.01208
282.13 K, 140 kPa, Gas | 0.01217
282.14 K, 434 kPa, Liquid | 0.07983
282.14 K, 10286 kPa, Liquid | 0.08591
282.15 K, 23304 kPa, Liquid | 0.09213
282.17 K, 20224 kPa, Liquid | 0.09064
282.2 K, 5363 kPa, Liquid | 0.08314
282.21 K, 15223 kPa, Liquid | 0.08817
282.28 K, 10288 kPa, Liquid | 0.08566
282.31 K, 242 kPa, Gas | 0.01258
282.32 K, 5352 kPa, Liquid | 0.08296
282.36 K, 200 kPa, Gas | 0.0123
282.4 K, 138 kPa, Gas | 0.01213
282.52 K, 245 kPa, Gas | 0.01231
282.54 K, 431 kPa, Liquid | 0.07937
282.54 K, 23312 kPa, Liquid | 0.09188
282.58 K, 200 kPa, Gas | 0.01226
282.58 K, 20215 kPa, Liquid | 0.09057
282.63 K, 428 kPa, Liquid | 0.07955
282.64 K, 15228 kPa, Liquid | 0.08812
282.67 K, 145 kPa, Gas | 0.01228
282.69 K, 23303 kPa, Liquid | 0.09187
282.7 K, 10287 kPa, Liquid | 0.0852
282.73 K, 20227 kPa, Liquid | 0.09025
282.76 K, 103 kPa, Gas | 0.01237
282.77 K, 5352 kPa, Liquid | 0.08245
282.79 K, 15232 kPa, Liquid | 0.0878
282.86 K, 10284 kPa, Liquid | 0.08516
282.9 K, 243 kPa, Gas | 0.01231
282.94 K, 5351 kPa, Liquid | 0.08227
282.95 K, 199 kPa, Gas | 0.01234
283.04 K, 425 kPa, Liquid | 0.07934
283.07 K, 143 kPa, Gas | 0.01233
283.13 K, 23323 kPa, Liquid | 0.0916
283.15 K, 424 kPa, Liquid | 0.0789
283.17 K, 20222 kPa, Liquid | 0.08992
283.19 K, 101 kPa, Gas | 0.01241
283.23 K, 15235 kPa, Liquid | 0.08758
283.26 K, 280 kPa, Gas | 0.01243
283.3 K, 242 kPa, Gas | 0.01229
283.33 K, 10277 kPa, Liquid | 0.08464
283.35 K, 20230 kPa, Liquid | 0.08937
283.37 K, 199 kPa, Gas | 0.01232
283.41 K, 5347 kPa, Liquid | 0.08183
283.44 K, 15228 kPa, Liquid | 0.08686
283.5 K, 142 kPa, Gas | 0.01236
283.52 K, 10279 kPa, Liquid | 0.08429
283.62 K, 5351 kPa, Liquid | 0.08173
283.63 K, 100 kPa, Gas | 0.01246
283.64 K, 280 kPa, Gas | 0.0125
283.73 K, 242 kPa, Gas | 0.01238
283.81 K, 200 kPa, Gas | 0.01236
283.96 K, 140 kPa, Gas | 0.01236
284.06 K, 280 kPa, Gas | 0.01255
284.11 K, 98 kPa, Gas | 0.01249
284.18 K, 242 kPa, Gas | 0.01239
284.26 K, 200 kPa, Gas | 0.01238
284.45 K, 139 kPa, Gas | 0.01242
284.62 K, 97 kPa, Gas | 0.0125
291.03 K, 97 kPa, Gas | 0.01317
291.05 K, 154 kPa, Gas | 0.0132
291.06 K, 237 kPa, Gas | 0.01331
291.26 K, 96 kPa, Gas | 0.013
291.28 K, 154 kPa, Gas | 0.01305
291.28 K, 236 kPa, Gas | 0.01323
291.51 K, 234 kPa, Gas | 0.01316
291.52 K, 95 kPa, Gas | 0.01287
291.52 K, 155 kPa, Gas | 0.01297
291.76 K, 232 kPa, Gas | 0.01312
291.79 K, 95 kPa, Gas | 0.01281
291.79 K, 155 kPa, Gas | 0.01291
292.02 K, 231 kPa, Gas | 0.01307
292.06 K, 94 kPa, Gas | 0.01276
292.06 K, 155 kPa, Gas | 0.01287
292.13 K, 314 kPa, Gas | 0.01299
292.21 K, 238 kPa, Gas | 0.01305
292.32 K, 154 kPa, Gas | 0.01313
292.44 K, 97 kPa, Gas | 0.01319
292.5 K, 311 kPa, Gas | 0.01305
292.51 K, 336 kPa, Gas | 0.0131
292.59 K, 236 kPa, Gas | 0.01303
292.72 K, 154 kPa, Gas | 0.01308
292.85 K, 96 kPa, Gas | 0.01324
292.88 K, 308 kPa, Gas | 0.01303
292.89 K, 333 kPa, Gas | 0.01312
292.98 K, 235 kPa, Gas | 0.01313
293.14 K, 154 kPa, Gas | 0.01304
293.29 K, 330 kPa, Gas | 0.01314
293.3 K, 95 kPa, Gas | 0.01322
293.3 K, 306 kPa, Gas | 0.0131
293.32 K, 349 kPa, Gas | 0.01317
293.41 K, 233 kPa, Gas | 0.01314
293.54 K, 400 kPa, Gas | 0.01316
293.58 K, 155 kPa, Gas | 0.01322
293.68 K, 347 kPa, Gas | 0.01318
293.72 K, 327 kPa, Gas | 0.01313

Liquid
Conditions | thermal conductivity [W/m/K]
283.15 K | 0.07962
293.15 K | 0.07611
